Experimental data as given in ChEMBL document CHEMBL1131484, “Human growth hormone-releasing hormone hGHRH(1-29)-NH2: systematic structure-activity relationship studies” (J Med Chem, 1998).

Target: T1, Growth hormone-releasing hormone receptor (Rattus norvegicus) (UniProt Q02644)
T1 sequence (whole entry): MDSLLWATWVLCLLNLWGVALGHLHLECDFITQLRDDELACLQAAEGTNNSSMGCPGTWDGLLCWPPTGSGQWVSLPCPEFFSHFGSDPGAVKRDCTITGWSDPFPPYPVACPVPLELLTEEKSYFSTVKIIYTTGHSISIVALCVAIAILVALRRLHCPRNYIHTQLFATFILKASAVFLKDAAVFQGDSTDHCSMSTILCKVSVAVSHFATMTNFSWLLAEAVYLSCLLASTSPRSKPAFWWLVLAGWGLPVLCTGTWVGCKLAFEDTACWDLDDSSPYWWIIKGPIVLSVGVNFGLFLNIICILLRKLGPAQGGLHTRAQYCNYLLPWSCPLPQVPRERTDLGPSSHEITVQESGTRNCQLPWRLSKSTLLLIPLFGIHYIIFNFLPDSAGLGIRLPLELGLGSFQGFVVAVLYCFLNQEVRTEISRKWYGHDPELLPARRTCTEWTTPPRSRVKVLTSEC
Test: Potency for growth hormone releasing hormone receptor (GHRFR) relative to human GHRH(1-40)OH- in the rat pituitary cell culture assay
Type: functional, cell-based
Conditions: Pituitary gland cell

Row | Compound | Relative potency
1 | CCCC[C@H]1NC(=O)[C@H]([C@@H](C)CC)NC(=O)[C@@H](NC(=O)[C@H](Cc2c[nH]cn2)NC(=O)[C@H](CC(C)C)NC(=O)[C@H](CC(C)C)NC(=O)[C@H](CCCCN)NC(=O)[C@H](CCCN=C(N)N)NC(=O)[C@H](Cc2ccccc2)NC(=O)[C@@H](NC(=O)[C@H](CC(C)C)NC(=O)[C@H](CCC(N)=O)NC(=O)[C@H](C)NC(=O)[C@H](CC(C)C)NC(=O)[C@@H](NC(=O)[C@H](CCCN=C(N)N)NC(=O)[C@H](CCCN=C(N)N)NC(=O)[C@H](Cc2ccc(O)cc2)NC(=O)[C@H](CO)NC(=O)[C@H](CO)NC(=O)[C@@H](NC(=O)[C@H](Cc2ccccc2)NC(=O)[C@@H](NC(=O)[C@H](C)NC(=O)[C@H](CC(=O)O)NC(=O)[C@H](C)NC(=O)[C@@](C)(N)Cc2c[nH]cn2)[C@@H](C)CC)[C@@H](C)O)[C@@H](C)CC)[C@@H](C)CC)CSSC[C@@H](C(N)=O)NC(=O)[C@H](CC(N)=O)NC1=O | 1.1
2 | CCCC[C@H]1NC(=O)[C@H]([C@@H](C)CC)NC(=O)[C@H](NC(=O)[C@H](CCC(N)=O)NC(=O)[C@H](CC(C)C)NC(=O)[C@H](CC(C)C)NC(=O)[C@H](CCCCN)NC(=O)[C@H](CCCN=C(N)N)NC(=O)[C@H](C)NC(=O)[C@H](CO)NC(=O)[C@H](CC(C)C)NC(=O)[C@H](CCC(N)=O)NC(=O)[C@H](C)NC(=O)[C@H](CC(C)C)NC(=O)[C@@H](NC(=O)[C@H](CCCCN)NC(=O)[C@H](CCCN=C(N)N)NC(=O)[C@H](Cc2ccc(O)cc2)NC(=O)[C@H](CO)NC(=O)[C@H](CC(N)=O)NC(=O)[C@@H](NC(=O)[C@H](Cc2ccccc2)NC(=O)[C@@H](NC(=O)[C@H](C)NC(=O)[C@H](CC(=O)O)NC(=O)[C@H](C)NC(=O)[C@@](C)(N)Cc2ccc(O)cc2)[C@@H](C)CC)[C@@H](C)O)C(C)C)CCC(=O)NCC[C@H](C(N)=O)NC(=O)[C@H](CO)NC1=O | 10.7
3 | CC[C@@H](C)[C@@H](NC(=O)[C@@H](C)NC(=O)[C@@H](CC(=O)O)NC(=O)[C@@H](C)NC(=O)[C@H](N)Cc1ccc(O)cc1)C(=O)N[C@H](Cc1ccccc1)C(=O)N[C@@H]1CCC(=O)NCCCC[C@@H](C(=O)N[C@@H](CCCN=C(N)N)C(=O)N[C@@H](CCCCN)C(=O)N[C@H](C(=O)N[C@@H](CC(C)C)C(=O)NCC(=O)N[C@@H](CCC(N)=O)C(=O)N[C@@H](CC(C)C)C(=O)N[C@@H](CO)C(=O)N[C@@H](C)C(=O)N[C@@H](CCCN=C(N)N)C(=O)N[C@@H](CCCCN)C(=O)N[C@@H](CC(C)C)C(=O)N[C@@H](CC(C)C)C(=O)N[C@@H](CCC(N)=O)C(=O)N[C@@H](CC(=O)O)C(=O)N[C@H](C(=O)N[C@@H](CCSC)C(=O)N[C@@H](CO)C(=O)N[C@@H](CCCN=C(N)N)C(N)=O)[C@@H](C)CC)C(C)C)NC(=O)[C@H](CO)NC(=O)[C@@H](CC(N)=O)NC1=O | 0.008
4 | CC[C@@H](C)[C@@H](NC(=O)[C@@H](CC(=O)O)NC(=O)[C@@H](CCC(N)=O)NC(=O)[C@@H](CC(C)C)NC(=O)[C@H]1CCCCNC(=O)CC[C@H](NC(=O)[C@H](CO)NC(=O)[C@H](CC(C)C)NC(=O)[C@H](CCC(N)=O)NC(=O)CNC(=O)[C@H](CC(C)C)NC(=O)[C@@H](NC(=O)[C@H](CCCCN)NC(=O)[C@H](CCCN=C(N)N)NC(=O)[C@H](Cc2ccc(O)cc2)NC(=O)[C@H](CO)NC(=O)[C@H](CC(N)=O)NC(=O)[C@@H](NC(=O)[C@H](Cc2ccccc2)NC(=O)[C@@H](NC(=O)[C@H](C)NC(=O)[C@H](CC(=O)O)NC(=O)[C@H](C)NC(=O)[C@@H](N)Cc2ccc(O)cc2)[C@@H](C)CC)[C@@H](C)O)C(C)C)C(=O)N[C@@H](CCCN=C(N)N)C(=O)N[C@H](CCCCN)C(=O)N1)C(=O)N[C@@H](CCSC)C(=O)N[C@@H](CO)C(=O)N[C@@H](CCCN=C(N)N)C(N)=O | 0.4
5 | CC[C@@H](C)[C@@H](NC(=O)[C@@H](CC(=O)O)NC(=O)[C@H]1CCCCNC(=O)CC[C@H](NC(=O)[C@H](CCCN=C(N)N)NC(=O)[C@H](C)NC(=O)[C@H](CO)NC(=O)[C@H](CC(C)C)NC(=O)[C@H](CCC(N)=O)NC(=O)CNC(=O)[C@H](CC(C)C)NC(=O)[C@@H](NC(=O)[C@H](CCCCN)NC(=O)[C@H](CCCN=C(N)N)NC(=O)[C@H](Cc2ccc(O)cc2)NC(=O)[C@H](CO)NC(=O)[C@H](CC(N)=O)NC(=O)[C@@H](NC(=O)[C@H](Cc2ccccc2)NC(=O)[C@@H](NC(=O)[C@H](C)NC(=O)[C@H](CC(=O)O)NC(=O)[C@H](C)NC(=O)[C@@H](N)Cc2ccc(O)cc2)[C@@H](C)CC)[C@@H](C)O)C(C)C)C(=O)N[C@@H](CC(C)C)C(=O)N[C@H](CC(C)C)C(=O)N1)C(=O)N[C@H](CCSC)C(=O)N[C@H](CO)C(=O)N[C@H](CCCN=C(N)N)C(N)=O | 4.5
6 | CC[C@H](C)[C@H](NC(=O)[C@H](C)NC(=O)[C@H](CC(=O)O)NC(=O)[C@H](C)NC(=O)[C@@H](N)Cc1ccc(O)cc1)C(=O)N[C@@H](Cc1ccccc1)C(=O)N[C@H](C(=O)N[C@@H](CC(N)=O)C(=O)N[C@@H](CO)C(=O)N[C@@H](Cc1ccc(O)cc1)C(=O)N[C@@H](CCCN=C(N)N)C(=O)N[C@@H](CCCCN)C(=O)N[C@H](C(=O)N[C@@H](CC(C)C)C(=O)NCC(=O)N[C@@H](CCC(N)=O)C(=O)N[C@@H](CC(C)C)C(=O)N[C@@H](CO)C(=O)N[C@@H](C)C(=O)N[C@@H](CCCN=C(N)N)C(=O)N[C@@H](CCCCN)C(=O)N[C@@H](CC(C)C)C(=O)N[C@@H](CC(C)C)C(=O)N[C@@H](CCC(N)=O)C(=O)N[C@@H](CC(=O)O)C(=O)N[C@H](C(=O)N[C@@H](CCSC)C(=O)N[C@@H](CO)C(=O)N[C@@H](CCCN=C(N)N)C(=O)N[C@@H](CCC(N)=O)C(=O)N[C@H](CCC(N)=O)C(=O)NCC(=O)N[C@@H](CCC(=O)O)C(=O)N[C@@H](CO)C(=O)N[C@@H](CC(N)=O)C(=O)N[C@@H](CCC(N)=O)C(=O)N[C@@H](CCC(=O)O)C(=O)N[C@@H](CCCN=C(N)N)C(=O)NCC(=O)N[C@@H](C)C(=O)O)[C@@H](C)CC)C(C)C)[C@@H](C)O | 1
7 | CC[C@H](C)[C@H](NC(=O)[C@H](C)NC(=O)[C@H](CC(=O)O)NC(=O)[C@H](C)NC(=O)[C@@H](N)Cc1ccc(O)cc1)C(=O)N[C@@H](Cc1ccccc1)C(=O)N[C@H](C(=O)N[C@@H](CC(N)=O)C(=O)N[C@@H](CO)C(=O)N[C@@H](Cc1ccc(O)cc1)C(=O)N[C@@H](CCCN=C(N)N)C(=O)N[C@@H](CCCCN)C(=O)N[C@H](C(=O)N[C@@H](CC(C)C)C(=O)NCC(=O)N[C@@H](CCC(N)=O)C(=O)N[C@@H](CC(C)C)C(=O)N[C@@H]1CCC(=O)NCCCC[C@@H](C(=O)N[C@@H](CC(C)C)C(=O)N[C@@H](CC(C)C)C(=O)N[C@@H](CCC(N)=O)C(=O)N[C@@H](CC(=O)O)C(=O)N[C@H](C(=O)N[C@@H](CCSC)C(=O)N[C@@H](CO)C(=O)N[C@@H](CCCN=C(N)N)C(N)=O)[C@@H](C)CC)NC(=O)[C@H](CCCN=C(N)N)NC(=O)[C@@H](C)NC1=O)C(C)C)[C@@H](C)O | 1.8
8 | CC[C@H](C)[C@H](NC(=O)[C@H](C)NC(=O)[C@H](CC(=O)O)NC(=O)[C@H](C)NC(=O)[C@@H](N)Cc1ccc(O)cc1)C(=O)N[C@@H](Cc1ccccc1)C(=O)N[C@H](C(=O)N[C@@H](CC(N)=O)C(=O)N[C@@H](CO)C(=O)N[C@@H](Cc1ccc(O)cc1)C(=O)N[C@@H](CCCN=C(N)N)C(=O)N[C@@H](CCCCN)C(=O)N[C@H](C(=O)N[C@@H](CC(C)C)C(=O)NCC(=O)N[C@H]1CCC(=O)NCCCC[C@H](C(=O)N[C@@H](CCCN=C(N)N)C(=O)N[C@@H](CCCCN)C(=O)N[C@@H](CC(C)C)C(=O)N[C@@H](CC(C)C)C(=O)N[C@@H](CCC(N)=O)C(=O)N[C@@H](CC(=O)O)C(=O)N[C@H](C(=O)N[C@@H](CCSC)C(=O)N[C@@H](CO)C(=O)N[C@@H](CCCN=C(N)N)C(N)=O)[C@@H](C)CC)NC(=O)[C@@H](CO)NC(=O)[C@H](CC(C)C)NC1=O)C(C)C)[C@@H](C)O | 2.8
9 | CC[C@H](C)[C@H](NC(=O)[C@H](C)NC(=O)[C@H](CC(=O)O)NC(=O)[C@H](C)NC(=O)[C@@H](N)Cc1ccc(O)cc1)C(=O)N[C@@H](Cc1ccccc1)C(=O)N[C@H](C(=O)N[C@@H](CC(N)=O)C(=O)N[C@@H](CO)C(=O)N[C@@H](Cc1ccc(O)cc1)C(=O)N[C@@H](CCCN=C(N)N)C(=O)N[C@H]1CCC(=O)NCCCC[C@H](C(=O)N[C@H](CCC(N)=O)C(=O)N[C@H](CC(C)C)C(=O)N[C@H](CO)C(=O)N[C@H](C)C(=O)N[C@@H](CCCN=C(N)N)C(=O)N[C@@H](CCCCN)C(=O)N[C@@H](CC(C)C)C(=O)N[C@@H](CC(C)C)C(=O)N[C@@H](CCC(N)=O)C(=O)N[C@@H](CC(=O)O)C(=O)N[C@H](C(=O)N[C@@H](CCSC)C(=O)N[C@@H](CO)C(=O)N[C@@H](CCCN=C(N)N)C(N)=O)[C@@H](C)CC)NC(=O)[C@@H](CC(C)C)NC(=O)[C@H](C(C)C)NC1=O)[C@@H](C)O | 1.2
10 | CC[C@H](C)[C@H](NC(=O)[C@H](C)NC(=O)[C@H](CC(=O)O)NC(=O)[C@H](C)NC(=O)[C@@H](N)Cc1ccc(O)cc1)C(=O)N[C@@H](Cc1ccccc1)C(=O)N[C@H](C(=O)N[C@H]1CCC(=O)NCCCC[C@H](C(=O)N[C@@H](CCCCN)C(=O)N[C@H](C(=O)N[C@@H](CC(C)C)C(=O)NCC(=O)N[C@@H](CCC(N)=O)C(=O)N[C@@H](CC(C)C)C(=O)N[C@@H](CO)C(=O)N[C@@H](C)C(=O)N[C@@H](CCCN=C(N)N)C(=O)N[C@@H](CCCCN)C(=O)N[C@@H](CC(C)C)C(=O)N[C@@H](CC(C)C)C(=O)N[C@@H](CCC(N)=O)C(=O)N[C@@H](CC(=O)O)C(=O)N[C@H](C(=O)N[C@@H](CCSC)C(=O)N[C@@H](CO)C(=O)N[C@@H](CCCN=C(N)N)C(N)=O)[C@@H](C)CC)C(C)C)NC(=O)[C@H](Cc2ccc(O)cc2)NC(=O)[C@H](CO)NC1=O)[C@@H](C)O | 0.014
